# Reference: ChEMBL document CHEMBL5303304, “EUbOPEN Chemogenomics Library - IncuCyte” (2023)
# Values joined by “and” are separate entries in the source; they are usually repeats but may differ in a detail not shown here. Equal values may be shown once.
# Experiments:
# Assay type in all cases: toxicity, cell-based
# HEK-293T = experiment: Incucyte cell viability with HEK293T; conditions: human, 10 µM, compound concentration 10 uM
# Fibroblast = experiment: Incucyte cell viability with human fibroblast; conditions: 10 µM, compound concentration 10 uM
# U2OS = experiment: Incucyte cell viability with U2OS; conditions: human, 10 µM, compound concentration 10 uM
# Also: unitless GR value; below 1 slowed growth and below 0 cell loss.
Compound,"Growth Rate (HEK-293T; 0 h, replicate number 1)","Growth Rate (HEK-293T; 0 h, replicate number 2)","Growth Rate (Fibroblast; 0 h, replicate number 1)","Growth Rate (Fibroblast; 18 h, replicate number 1)","Growth Rate (U2OS; 0 h, replicate number 1)","Growth Rate (U2OS; 0 h, replicate number 2)","Growth Rate (Fibroblast; 6 h, replicate number 1)","Growth Rate (Fibroblast; 12 h, replicate number 1)","Growth Rate (U2OS; 6 h, replicate number 1)","Growth Rate (U2OS; 6 h, replicate number 2)","Growth Rate (U2OS; 12 h, replicate number 1)","Growth Rate (U2OS; 12 h, replicate number 2)","Growth Rate (U2OS; 18 h, replicate number 2)","Growth Rate (U2OS; 24 h, replicate number 2)","Growth Rate (HEK-293T; 6 h, replicate number 2)","Growth Rate (HEK-293T; 18 h, replicate number 2)","Growth Rate (HEK-293T; 24 h, replicate number 2)","Growth Rate (Fibroblast; 0 h, replicate number 2)","Growth Rate (U2OS; 18 h, replicate number 1)","Growth Rate (U2OS; 24 h, replicate number 1)",further results
CC(N)C1CCC(C(=O)Nc2ccncc2)CC1 (stereo unspecified),-0.35,0.58,-0.76,-0.47,0.26,-0.73,,,,,,,,,,,,,,,"Growth Rate (Fibroblast; 24 h, replicate number 1): 0.52"
O=C(NCC1(N2CCN(c3ccccc3)CC2)CCOCC1)c1cccnc1Sc1ccccc1,0.97,-0.38,,-0.49,0.14,-0.32,0.02,-1,0.97,0.73,0.95,0.86,0.92,0.93,,,,,,,
c1cc(-c2cnn3cc(-c4ccc(N5CCNCC5)cc4)cnc23)c2cccnc2c1,-0.92,0.43,,-0.44,-0.73,,-0.19,-1,-0.87,-0.62,-0.69,-0.61,-0.48,-0.43,-0.96,-0.58,-0.45,-0.9,-0.57,-0.49,"Growth Rate (HEK-293T; 6 h, replicate number 1): -0.69; Growth Rate (HEK-293T; 12 h, replicate number 1): -0.55; Growth Rate (HEK-293T; 12 h, replicate number 2): -0.77; Growth Rate (HEK-293T; 18 h, replicate number 1): -0.44; Growth Rate (HEK-293T; 24 h, replicate number 1): -0.34; Growth Rate (Fibroblast; 6 h, replicate number 2): -1; Growth Rate (Fibroblast; 12 h, replicate number 2): -0.91; Growth Rate (Fibroblast; 18 h, replicate number 2): -0.74; Growth Rate (Fibroblast; 24 h, replicate number 1): 0.25; Growth Rate (Fibroblast; 24 h, replicate number 2): -0.55"
COc1cc(OC)c(NC(=O)Nc2cc(C)on2)cc1Cl,0.72,0.7,,,,,0.03,-1,,0.98,,,0.82,,,,,-0.96,0.96,,
COc1cc(OC)cc(-c2cc3cnc(N)nc3nc2NC(=O)NC(C)(C)C)c1,,-0.38,,,,0.36 and 0.2,-0.05,,0.92,,0.8,,,,,0.36 and 0.62,0.38 and 0.68,0.79,0.67 and 0.9,0.91,"Growth Rate (HEK-293T; 6 h, replicate number 1): 0.92; Growth Rate (HEK-293T; 12 h, replicate number 1): 0.8; Growth Rate (HEK-293T; 18 h, replicate number 1): 0.71; Growth Rate (HEK-293T; 24 h, replicate number 1): 0.65 and 0.98; Growth Rate (Fibroblast; 6 h, replicate number 2): 0.11; Growth Rate (Fibroblast; 18 h, replicate number 2): 0.45; Growth Rate (Fibroblast; 24 h, replicate number 2): 0.45"
O=C(NCc1cccc(O)c1)Nc1nc(-c2ccncc2)cs1,-0.16,-0.82,,,,-0.94,-1,,,,,,,1,,,,-0.55,,0.88,
N#Cc1ccnc(Nc2cc(C3CCN(C4COC4)CC3)cc(N3CCC(F)(F)C3)n2)c1,-0.35,,,-0.85,,-1,,,0.88,0.29,0.44,0.38,0.46,0.44,-0.9,-0.37,-0.26,,0.22,0.18,"Growth Rate (HEK-293T; 6 h, replicate number 1): 0.58; Growth Rate (HEK-293T; 12 h, replicate number 1): 0.85; Growth Rate (HEK-293T; 12 h, replicate number 2): -0.54; Growth Rate (HEK-293T; 18 h, replicate number 1): 0.46; Growth Rate (HEK-293T; 24 h, replicate number 1): 0.44; Growth Rate (Fibroblast; 6 h, replicate number 2): -1; Growth Rate (Fibroblast; 12 h, replicate number 2): -0.47; Growth Rate (Fibroblast; 18 h, replicate number 2): 0.21; Growth Rate (Fibroblast; 24 h, replicate number 1): -0.29; Growth Rate (Fibroblast; 24 h, replicate number 2): 0.43"
COc1ccc(OC)c(-c2ccc(NC(=O)c3ccncc3F)cc2)c1,-0.77,,-0.06,-0.35,-0.54,-0.01,,,0.57,0.63,0.56,0.84,0.87,0.91,,,,,0.74,0.87,"Growth Rate (Fibroblast; 6 h, replicate number 2): -0.75; Growth Rate (Fibroblast; 12 h, replicate number 2): 0.93; Growth Rate (Fibroblast; 24 h, replicate number 2): 0.92"
COc1cc(N2CCN(C)CC2)ccc1Nc1nccc(-c2cn(C)c3cnccc23)n1,-0.65,-0.69,,,,-0.71,-1,,,,,,,,,,0.8,0.04,,0.75,
O=C(NS(=O)(=O)N1CCC1)c1cc(C2CC2)c(OCC23CC4CC(CC(C4)C2)C3)cc1F,0.85,0.39,0.19,0.03,-0.5,-0.98,0.24,,0.59,0.7,,0.73,0.8,0.87,0.7,0.99,0.92,,,,"Growth Rate (HEK-293T; 6 h, replicate number 1): 0.69; Growth Rate (HEK-293T; 12 h, replicate number 1): 0.88; Growth Rate (HEK-293T; 18 h, replicate number 1): 0.87; Growth Rate (HEK-293T; 24 h, replicate number 1): 0.8; Growth Rate (Fibroblast; 6 h, replicate number 2): -1; Growth Rate (Fibroblast; 12 h, replicate number 2): -0.01; Growth Rate (Fibroblast; 18 h, replicate number 2): 0.31; Growth Rate (Fibroblast; 24 h, replicate number 1): 0.81; Growth Rate (Fibroblast; 24 h, replicate number 2): 0.37"
Cc1ccc(S(=O)(=O)O)cc1.Cn1cc(-c2ccc(F)c(C(F)(F)F)c2)nc1C1CCN(c2ncnc3[nH]ncc23)CC1,0.72,-0.63,0.54,,0.87,-1,-1,,,,,,,,,,0.9,-0.97,,,
O=C1N=C(NCc2cccs2)S/C1=C\c1ccc2ncccc2c1,-0.36,-0.64,-0.1,,0.58,-0.23,0.04,,,,-0.76,0.57,0.67,0.78,,,,,0.78,0.64,
CN(Cc1cccc(F)c1CNc1cc(F)c(S(=O)(=O)Nc2cscn2)c(F)c1)C(C)(C)C,0.6,0.65,,0.65,,,,,0.37,0.58,0.72,0.86,0.97,0.96,,,,-0.81,0.89,0.9,
CN1CCN(c2nc(N)c3ccccc3n2)CC1,0.4,0.8,,0.78,,-0.89,0.45,-1,0.43,0.36,0.81,0.53,,0.83,0.91,,,,0.76,0.77,"Growth Rate (Fibroblast; 12 h, replicate number 2): 0.67"
Cl.Cl.c1ccc2c(-c3cnn4cc(-c5ccc(N6CCNCC6)cc5)cnc34)ccnc2c1,-0.16,,,,-0.92,,-0.76,-1,-0.9,-0.64,-0.48,-0.46,-0.37,,-0.92,-0.48,-0.38,-0.67,-0.35,-0.32,"Growth Rate (HEK-293T; 12 h, replicate number 2): -0.66"
COc1cc2ncnc(Nc3ccc(Oc4ccccc4)cc3C)c2cc1OC.Cl,-0.14,-0.45,-0.71,,0.5,-0.92,0.3,-1,,0.35,,0.74,,,,,,-0.78,,,
CC1(C)C(=O)N([C@H]2CCc3c(O)cccc32)c2nc(Nc3cccc(CN4CCCC4)c3)ncc21,,-1,,-0.44,-0.88,0.2,-0.49,-0.4,0.38,-0.15,0.05,-0.3,-0.3,-0.38,-0.56,-0.35,-0.32,,-0.08,-0.27,"Growth Rate (HEK-293T; 6 h, replicate number 1): -0.69; Growth Rate (HEK-293T; 12 h, replicate number 1): -0.53; Growth Rate (HEK-293T; 12 h, replicate number 2): -0.41; Growth Rate (HEK-293T; 18 h, replicate number 1): -0.36; Growth Rate (HEK-293T; 24 h, replicate number 1): -0.28; Growth Rate (Fibroblast; 6 h, replicate number 2): -0.63; Growth Rate (Fibroblast; 12 h, replicate number 2): -0.57; Growth Rate (Fibroblast; 18 h, replicate number 2): -0.52; Growth Rate (Fibroblast; 24 h, replicate number 1): -0.42; Growth Rate (Fibroblast; 24 h, replicate number 2): -0.52"
